Reference: US6608082B1, “Treatment of erectile dysfunction using isoquinoline compound melanocortin receptor ligands” (Lion Bioscience AG, priority 1998, dated 2003)

How the values were obtained:
[1] = biological target: T1, MCR-1 (Homo sapiens, UniProt Q01726); assay: Melanocortin receptor binding assay, competition with 125I-HP 467, HEK 293 cells expressing hMCR-1; conditions: TRG 2406 and TRG 2407 libraries; inhibition of binding of 125I-HP 467; read-out: MC-1 IC50
T1 construct: expressed in transfected cells; host or cells: HEK 293
In short: (§1)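 Test compounds compete on intact HEK 293 cells carrying hMCR-1 (2×10^4 per tube) or hMCR-4 (4×10^3 per tube), suspended in PBS, 10% calf serum, 1 mM CaCl2.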

[2] = biological target: T2, MCR-4 (Homo sapiens, UniProt P32245); assay: Melanocortin receptor binding assay, competition with 125I-HP 467, HEK 293 cells expressing hMCR-4; conditions: TRG 2406 and TRG 2407 libraries, inhibition of binding of 125I-HP 467; for IC50: read-out: MC-4 IC50
T2 construct: expressed in transfected cells; host or cells: HEK 293
In short: as §1

T2 sequence (P32245 whole entry): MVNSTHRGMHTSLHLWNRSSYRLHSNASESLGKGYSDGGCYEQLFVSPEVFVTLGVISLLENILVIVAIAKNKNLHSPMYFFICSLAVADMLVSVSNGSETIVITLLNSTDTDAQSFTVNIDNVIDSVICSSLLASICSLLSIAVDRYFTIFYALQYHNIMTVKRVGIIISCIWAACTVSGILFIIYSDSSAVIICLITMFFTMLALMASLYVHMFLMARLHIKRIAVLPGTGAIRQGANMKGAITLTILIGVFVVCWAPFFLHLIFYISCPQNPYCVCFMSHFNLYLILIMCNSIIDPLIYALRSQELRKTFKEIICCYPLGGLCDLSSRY
T1 sequence (Q01726 whole entry): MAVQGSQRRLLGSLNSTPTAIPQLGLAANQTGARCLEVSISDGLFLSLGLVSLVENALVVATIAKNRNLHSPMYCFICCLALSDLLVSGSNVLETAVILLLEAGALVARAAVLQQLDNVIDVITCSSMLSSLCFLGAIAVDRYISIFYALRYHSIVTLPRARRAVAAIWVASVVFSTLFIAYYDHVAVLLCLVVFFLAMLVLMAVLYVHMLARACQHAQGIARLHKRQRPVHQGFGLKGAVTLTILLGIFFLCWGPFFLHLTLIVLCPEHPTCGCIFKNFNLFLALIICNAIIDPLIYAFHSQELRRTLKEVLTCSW

IC50 [1] [µM]	IC50 [2] [µM]	MC-4 IC50 [2]	SMILES
7.86	3.86	–	NCCN1Cc2ccccc2C(CNCc2ccccc2O)C1c1cccc(Oc2ccc(Cl)c(Cl)c2)c1 (stereo not drawn) [TRG 2406-2]
12.3	9.69	–	CNC(CN)CN1Cc2ccccc2C(CNCc2ccccc2O)C1c1cccc(Oc2ccc(Cl)c(Cl)c2)c1 (stereo not drawn) [TRG 2406-3]
6.16	3.41	–	COc1ccc(Oc2cccc(C3C(CNCc4ccccc4O)c4ccccc4CN3CCN)c2)cc1 (stereo not drawn) [TRG 2406-5]
3.17	1.36	–	CNC(CN)CN1Cc2ccccc2C(CNCc2ccccc2O)C1c1cccc(Oc2ccc(OC)cc2)c1 (stereo not drawn) [TRG 2406-6]
1.23	1.74	–	CNC(CN)CCCCN1Cc2ccccc2C(CNCc2ccccc2O)C1c1cccc(Oc2ccc(OC)cc2)c1 (stereo not drawn) [TRG 2406-7]
7.48	5.67	–	NCCN1Cc2ccccc2C(CNCc2ccccc2O)C1c1cccc(Oc2ccccc2)c1 (stereo not drawn) [TRG 2406-8]
3.66	2.1	–	CNC(CN)CN1Cc2ccccc2C(CNCc2ccccc2O)C1c1cccc(Oc2ccccc2)c1 (stereo not drawn) [TRG 2406-9]
0.85	0.26	–	CNC(CN)CCCCN1Cc2ccccc2C(CNCc2ccccc2O)C1c1cccc(Oc2ccccc2)c1 (stereo not drawn) [TRG 2406-10]
5.44	2.62	–	CNC(CN)CN1Cc2ccccc2C(CNCc2ccccc2O)C1c1ccc(Oc2ccccc2)cc1 (stereo not drawn) [TRG 2406-12]
0.18	1.29	–	CNC(CN)CCCCN1Cc2ccccc2C(CNCc2ccccc2O)C1c1ccc(Oc2ccccc2)cc1 (stereo not drawn) [TRG 2406-13]
8.31	5.36	–	CCCOc1ccc(C2C(CNCc3ccccc3O)c3ccccc3CN2CCN)cc1 (stereo not drawn) [TRG 2406-14]
10.8	3.3	–	CCn1c2ccccc2c2cc(C3C(CNCc4ccccc4O)c4ccccc4CN3CCN)ccc21 (stereo not drawn) [TRG 2406-20]
6.25	1.53	–	CCn1c2ccccc2c2cc(C3C(CNCc4ccccc4O)c4ccccc4CN3CC(CN)NC)ccc21 (stereo not drawn) [TRG 2406-21]

Second part, the compound before the results:

SMILES	IC50 [1] [µM]	IC50 [2] [µM]	MC-4 IC50 [2]
CNC(CN)CCCCN1Cc2ccccc2C(CNCc2ccccc2O)C1c1cccn1C (stereo not drawn) [TRG 2406-1]	3.79	5.85	–
CCCOc1ccc(C2C(CNCc3ccccc3O)c3ccccc3CN2CC(CN)NC)cc1 (stereo not drawn) [TRG 2406-15]	7.22	2.75	–
CCCOc1ccc(C2C(CNCc3ccccc3O)c3ccccc3CN2CCCCC(CN)NC)cc1 (stereo not drawn) [TRG 2406-16]	2.12	11.6	–
CCn1c2ccccc2c2cc(C3C(CNCc4ccccc4O)c4ccccc4CN3CCCCC(CN)NC)ccc21 (stereo not drawn) [TRG 2406-22]	2.12	1.79	–
CNC(CN)CCCCN1Cc2ccccc2C(CN(C)c2ccccc2)C1c1ccc(Cl)cc1Cl (stereo not drawn) [TRG 2407-2]	5.75	6.26	–
CNC(CN)CCCCN1Cc2ccccc2C(CNc2ccccc2Cl)C1c1ccc(Cl)cc1Cl (stereo not drawn) [TRG 2407-3]	8.46	9.45	–
CNC(CN)CCCCN1Cc2ccccc2C(CNc2ccccc2OC)C1c1ccc(Cl)cc1Cl (stereo not drawn) [TRG 2407-4]	3.65	4.12	–
CNC(CN)CCCCN1Cc2ccccc2C(CNc2cccc(Cl)c2)C1c1ccc(Cl)cc1Cl (stereo not drawn) [TRG 2407-5]	8.82	14.7	–
CCOc1cccc(NCC2c3ccccc3CN(CCCCC(CN)NC)C2c2ccc(Cl)cc2Cl)c1 (stereo not drawn) [TRG 2407-6]	3.42	6.97	–
CNC(CN)CCCCN1Cc2ccccc2C(CNc2cccc(O)c2)C1c1ccc(Cl)cc1Cl (stereo not drawn) [TRG 2407-7]	4.38	–	no fit
CNC(CN)CCCCN1Cc2ccccc2C(CNc2ccc(Cl)cc2)C1c1ccc(Cl)cc1Cl (stereo not drawn) [TRG 2407-8]	10.9	21.2	–
CNC(CN)CCCCN1Cc2ccccc2C(CNc2ccc(OC)cc2)C1c1ccc(Cl)cc1Cl (stereo not drawn) [TRG 2407-9]	2.53	6.22	–
CNC(CN)CCCCN1Cc2ccccc2C(CNCc2ccccc2)C1c1ccc(Cl)cc1Cl (stereo not drawn) [TRG 2407-10]	4.13	3.85	–
CNC(CN)CCCCN1Cc2ccccc2C(CN(C)Cc2ccccc2)C1c1ccc(Cl)cc1Cl (stereo not drawn) [TRG 2407-11]	5.31	6.17	–
